Results taken from ChEMBL document CHEMBL4002647, “BMS-933043, a Selective α7 nAChR Partial Agonist for the Treatment of Cognitive Deficits Associated with Schizophrenia” (ACS Med Chem Lett, 2017).
Activity calls are given as the source filed them. The rule behind the calls is not given here.

How the values were obtained:
CYP2D6 = CYP2D6 (Homo sapiens, UniProt P10635); test: Inhibition of recombinant human CYP2D6 using fluorogenic substrate preincubated for 30 mins and measured after 20 to 60 mins in presence of NADPH regenerating system by fluorescence assay; type: ADME; conditions: human, recombinant CYP2D6, probe fluorogenic substrate (not named)
[1] = biological target: Neuronal acetylcholine receptor; alpha3/beta4 (Rattus norvegicus) (UniProt P04757+P12392); test: Antagonist activity at rat alpha3beta4 nAChR expressed in HEK293 cells assessed as inhibition of acetylcholine-induced increase in Ca2+ flux by Fluo-4 AM dye based FLIPR assay; type: cell-based
[2] = Fraction unbound in monkey plasma at 10 uM after 4 hrs by equilibrium dialysis method; type: ADME, cell-free, Macaca mulatta; conditions: rhesus monkey
[3] = biological target: T1, Neuronal acetylcholine receptor subunit alpha-7 (Homo sapiens, UniProt P36544); test: Agonist activity at human alpha7 nAChR expressed in HEK293 cells co-expressing human RIC3 assessed as area under current curve at 10 uM at holding potential of -90 mV by whole-cell voltage clamp electrophysiology method relative to acetylcholine; type: cell-based
[4] = biological target: Nicotinic acetylcholine receptor alpha-1/beta-1/delta/epsilon (Rattus norvegicus) (UniProt P25109+P25108+P25110+P09660); test: Antagonist activity at rat alpha1beta1delta1epsilon nAChR expressed in HEK293 cells assessed as inhibition of acetylcholine-induced increase in Ca2+ flux by Fluo-4 AM dye based FLIPR assay; type: cell-based
[5] = Metabolic stability in mouse liver microsomes assessed as compound remaining at 3 uM after 10 mins by LC-MS/MS analysis; type: ADME, microsome; conditions: read-out: Stability
[6] = Metabolic stability in dog liver microsomes assessed as compound remaining at 3 uM after 10 mins by LC-MS/MS analysis; type: ADME, Canis lupus familiaris, microsome; conditions: read-out: Stability
CYP2C8 = CYP2C8 (Homo sapiens, UniProt P10632); test: Inhibition of recombinant human CYP2C8 using fluorogenic substrate preincubated for 30 mins and measured after 20 to 60 mins in presence of NADPH regenerating system by fluorescence assay; type: ADME; conditions: human, recombinant CYP2C8, probe fluorogenic substrate (not named)
CYP2B6 = CYP2B6 (Homo sapiens, UniProt P20813); test: Inhibition of recombinant human CYP2B6 using fluorogenic substrate preincubated for 30 mins and measured after 20 to 60 mins in presence of NADPH regenerating system by fluorescence assay; type: ADME; conditions: human, recombinant CYP2B6, probe fluorogenic substrate (not named)
[7] = biological target: T1, Neuronal acetylcholine receptor subunit alpha-7; test: Displacement of [125I]alpha-bungarotoxin from human alpha7 nAChR expressed in HEK293 cell membranes incubated for 2 hrs and measured by gamma counting method
CYP2C9 = CYP2C9 (Homo sapiens, UniProt P11712); test: Inhibition of recombinant human CYP2C9 using fluorogenic substrate preincubated for 30 mins and measured after 20 to 60 mins in presence of NADPH regenerating system by fluorescence assay; type: ADME; conditions: recombinant CYP2C9, probe fluorogenic substrate (not named)
[8] = Metabolic stability in rat liver microsomes assessed as compound remaining at 3 uM after 10 mins by LC-MS/MS analysis; type: ADME, microsome; conditions: read-out: Stability
CYP3A4 [9] = biological target: T2, CYP3A4 (Homo sapiens, UniProt P08684); test: Inhibition of recombinant human CYP3A4 using fluorogenic substrate BZR preincubated for 30 mins and measured after 20 to 60 mins in presence of NADPH regenerating system by fluorescence assay; type: ADME; conditions: human, recombinant CYP3A4, probe BZR
Canis familiaris [10] = organism: Canis familiaris; test: […] in dog assessed as increase in ALT level; type: toxicity, Canis lupus familiaris; conditions: in vivo
[11] = Fraction unbound in dog plasma at 10 uM after 4 hrs by equilibrium dialysis method; type: ADME, cell-free, Canis lupus familiaris
CYP2C19 = CYP2C19 (Homo sapiens, UniProt P33261); test: Inhibition of recombinant human CYP2C19 using fluorogenic substrate preincubated for 30 mins and measured after 20 to 60 mins in presence of NADPH regenerating system by fluorescence assay; type: ADME; conditions: recombinant CYP2C19, probe fluorogenic substrate (not named)
CYP3A4 [12] = biological target: T2, CYP3A4; test: Inhibition of recombinant human CYP3A4 using fluorogenic substrate BFC preincubated for 30 mins and measured after 20 to 60 mins in presence of NADPH regenerating system by fluorescence assay; type: ADME; conditions: human, recombinant CYP3A4, probe BFC
Canis familiaris [13] = organism: Canis familiaris; test: Hepatotoxicity in dog assessed as increase in AST level; type: toxicity, Canis lupus familiaris; conditions: in vivo
CYP1A2 = CYP1A2 (Homo sapiens, UniProt P05177); test: Inhibition of recombinant human CYP1A2 using fluorogenic substrate preincubated for 30 mins and measured after 20 to 60 mins in presence of NADPH regenerating system by fluorescence assay; type: ADME; conditions: recombinant CYP1A2, probe fluorogenic substrate (not named)
[14] = Fraction unbound in rat plasma at 10 uM after 4 hrs by equilibrium dialysis method; type: ADME, cell-free
Canis familiaris [15] = organism: Canis familiaris; test: […] in dog assessed as increase in alkaline phosphatase level; type: toxicity, Canis lupus familiaris; conditions: in vivo
[16] = Fraction unbound in mouse plasma at 10 uM after 4 hrs by equilibrium dialysis method; type: ADME, cell-free
[17] = Metabolic stability in human liver microsomes assessed as compound remaining at 3 uM after 10 mins by LC-MS/MS analysis; type: ADME, microsome; conditions: read-out: Stability
Canis familiaris [18] = organism: Canis familiaris; test: Cardiotoxicity in dog assessed as QT prolongation; type: toxicity, Canis lupus familiaris
Canis familiaris [19] = organism: Canis familiaris; test: Hepatotoxicity in dog assessed as increase in alkaline phosphatase level; type: toxicity, Canis lupus familiaris; conditions: in vivo
[20] = Metabolic stability in monkey liver microsomes assessed as compound remaining at 3 uM after 10 mins by LC-MS/MS analysis; type: ADME, Macaca mulatta, microsome; conditions: rhesus monkey, read-out: Stability
[21] = Fraction unbound in human plasma at 10 uM after 4 hrs by equilibrium dialysis method; type: ADME, cell-free
[22] = biological target: T1, Neuronal acetylcholine receptor subunit alpha-7; test: Agonist activity at human alpha7 nAChR expressed in HEK293 cells co-expressing human RIC3 assessed as induction of peak current amplitutde at 10 uM at holding potential of -90 mV by whole-cell voltage clamp electrophysiology method relative to acetylcholine; type: cell-based
Canis familiaris [23] = organism: Canis familiaris; test: Hepatotoxicity in dog assessed as increase in ALT level; type: toxicity, Canis lupus familiaris; conditions: in vivo
[24] = biological target: T1, Neuronal acetylcholine receptor subunit alpha-7; test: Agonist activity at human alpha7 nAChR expressed in HEK293 cells co-expressing human RIC3 assessed as area under current curve at holding potential of -90 mV by whole-cell voltage clamp electrophysiology method; type: cell-based
[25] = biological target: Neuronal acetylcholine receptor; alpha4/beta2 (Rattus norvegicus) (UniProt P09483+P12390); test: Antagonist activity at rat alpha4beta2 nAChR expressed in HEK293 cells assessed as inhibition of acetylcholine-induced increase in Ca2+ flux by Fluo-4 AM dye based FLIPR assay; type: cell-based
Canis familiaris [26] = organism: Canis familiaris; test: […] in dog assessed as increase in AST level; type: toxicity, Canis lupus familiaris; conditions: in vivo

T1 sequence (P36544 whole entry): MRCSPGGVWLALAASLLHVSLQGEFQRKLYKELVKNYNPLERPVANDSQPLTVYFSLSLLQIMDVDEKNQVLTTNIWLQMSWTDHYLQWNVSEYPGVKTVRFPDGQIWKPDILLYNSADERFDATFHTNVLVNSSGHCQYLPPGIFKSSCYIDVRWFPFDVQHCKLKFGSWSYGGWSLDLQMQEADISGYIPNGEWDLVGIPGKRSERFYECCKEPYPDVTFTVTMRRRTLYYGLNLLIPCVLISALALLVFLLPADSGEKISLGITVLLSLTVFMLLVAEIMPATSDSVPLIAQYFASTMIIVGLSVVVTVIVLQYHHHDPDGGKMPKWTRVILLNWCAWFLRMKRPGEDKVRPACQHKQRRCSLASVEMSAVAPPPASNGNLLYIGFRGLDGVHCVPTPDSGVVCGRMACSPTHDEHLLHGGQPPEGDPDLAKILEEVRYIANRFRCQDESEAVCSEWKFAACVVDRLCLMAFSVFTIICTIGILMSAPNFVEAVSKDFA
T2 sequence (P08684 whole entry): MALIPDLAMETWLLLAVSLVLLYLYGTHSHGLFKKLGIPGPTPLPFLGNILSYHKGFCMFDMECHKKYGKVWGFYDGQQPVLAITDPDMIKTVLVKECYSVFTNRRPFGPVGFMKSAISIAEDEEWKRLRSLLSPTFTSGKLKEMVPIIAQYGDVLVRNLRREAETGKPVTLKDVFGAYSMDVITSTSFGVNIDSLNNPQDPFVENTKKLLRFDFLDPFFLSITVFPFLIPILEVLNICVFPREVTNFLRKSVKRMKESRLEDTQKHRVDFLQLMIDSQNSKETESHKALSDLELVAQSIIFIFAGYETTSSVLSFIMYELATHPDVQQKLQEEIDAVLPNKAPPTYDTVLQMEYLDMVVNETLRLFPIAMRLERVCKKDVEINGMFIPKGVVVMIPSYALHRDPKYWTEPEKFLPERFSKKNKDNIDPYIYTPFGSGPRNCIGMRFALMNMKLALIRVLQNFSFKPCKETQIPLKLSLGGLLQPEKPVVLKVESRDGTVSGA
Sequence of CYP2C9 (P11712 whole entry): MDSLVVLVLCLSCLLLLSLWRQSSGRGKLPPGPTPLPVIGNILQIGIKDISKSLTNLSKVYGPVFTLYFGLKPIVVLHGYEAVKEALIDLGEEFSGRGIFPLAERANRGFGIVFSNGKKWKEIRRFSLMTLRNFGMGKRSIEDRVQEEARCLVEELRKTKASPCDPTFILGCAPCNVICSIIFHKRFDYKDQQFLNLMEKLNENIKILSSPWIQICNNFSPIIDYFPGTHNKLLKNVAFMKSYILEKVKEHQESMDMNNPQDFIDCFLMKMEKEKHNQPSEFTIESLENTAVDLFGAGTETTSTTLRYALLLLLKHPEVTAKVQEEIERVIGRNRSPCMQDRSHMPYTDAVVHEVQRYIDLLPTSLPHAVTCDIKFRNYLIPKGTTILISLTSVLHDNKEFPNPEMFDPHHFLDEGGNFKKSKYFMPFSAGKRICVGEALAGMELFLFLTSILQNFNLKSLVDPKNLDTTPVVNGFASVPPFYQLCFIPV
Sequence of CYP2B6 (P20813 whole entry): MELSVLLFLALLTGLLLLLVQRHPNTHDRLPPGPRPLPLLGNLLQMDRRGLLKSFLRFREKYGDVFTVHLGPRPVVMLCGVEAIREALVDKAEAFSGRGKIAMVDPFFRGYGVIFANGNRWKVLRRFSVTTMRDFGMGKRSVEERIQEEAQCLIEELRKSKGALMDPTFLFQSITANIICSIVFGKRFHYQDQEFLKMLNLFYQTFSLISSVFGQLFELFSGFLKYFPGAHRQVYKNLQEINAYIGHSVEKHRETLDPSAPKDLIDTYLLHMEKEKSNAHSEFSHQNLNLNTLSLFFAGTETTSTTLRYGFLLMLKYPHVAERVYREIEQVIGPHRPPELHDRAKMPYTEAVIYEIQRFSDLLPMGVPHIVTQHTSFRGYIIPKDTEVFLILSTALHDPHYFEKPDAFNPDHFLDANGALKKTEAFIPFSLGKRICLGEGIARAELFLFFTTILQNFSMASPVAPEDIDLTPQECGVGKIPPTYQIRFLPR
Sequence of CYP2D6 (P10635 whole entry): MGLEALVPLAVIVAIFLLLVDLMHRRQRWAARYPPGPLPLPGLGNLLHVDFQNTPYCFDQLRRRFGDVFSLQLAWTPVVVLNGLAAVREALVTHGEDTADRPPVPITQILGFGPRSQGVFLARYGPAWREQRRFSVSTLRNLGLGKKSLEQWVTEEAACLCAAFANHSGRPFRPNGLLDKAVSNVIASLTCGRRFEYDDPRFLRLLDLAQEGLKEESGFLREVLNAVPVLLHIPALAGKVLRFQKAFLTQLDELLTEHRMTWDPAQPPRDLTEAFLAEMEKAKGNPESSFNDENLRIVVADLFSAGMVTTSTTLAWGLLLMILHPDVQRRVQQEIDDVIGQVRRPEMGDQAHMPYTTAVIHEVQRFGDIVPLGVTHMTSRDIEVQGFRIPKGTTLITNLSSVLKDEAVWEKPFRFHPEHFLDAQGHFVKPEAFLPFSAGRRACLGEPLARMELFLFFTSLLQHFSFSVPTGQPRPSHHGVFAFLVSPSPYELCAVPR
Sequence of CYP1A2 (P05177 whole entry): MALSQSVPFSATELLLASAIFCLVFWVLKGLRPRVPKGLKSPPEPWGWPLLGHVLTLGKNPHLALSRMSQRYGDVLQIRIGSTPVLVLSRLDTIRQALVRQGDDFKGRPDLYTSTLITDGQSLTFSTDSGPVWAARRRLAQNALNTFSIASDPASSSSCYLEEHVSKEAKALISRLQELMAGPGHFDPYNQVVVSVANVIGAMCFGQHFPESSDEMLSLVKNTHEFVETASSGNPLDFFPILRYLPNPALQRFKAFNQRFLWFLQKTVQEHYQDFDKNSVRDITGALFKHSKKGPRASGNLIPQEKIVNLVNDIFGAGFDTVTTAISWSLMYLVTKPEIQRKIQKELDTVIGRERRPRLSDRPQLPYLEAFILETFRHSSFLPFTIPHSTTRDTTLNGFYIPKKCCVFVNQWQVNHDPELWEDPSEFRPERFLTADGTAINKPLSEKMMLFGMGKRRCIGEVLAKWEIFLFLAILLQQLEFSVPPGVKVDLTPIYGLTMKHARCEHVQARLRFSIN
Sequence of CYP2C19 (P33261 whole entry): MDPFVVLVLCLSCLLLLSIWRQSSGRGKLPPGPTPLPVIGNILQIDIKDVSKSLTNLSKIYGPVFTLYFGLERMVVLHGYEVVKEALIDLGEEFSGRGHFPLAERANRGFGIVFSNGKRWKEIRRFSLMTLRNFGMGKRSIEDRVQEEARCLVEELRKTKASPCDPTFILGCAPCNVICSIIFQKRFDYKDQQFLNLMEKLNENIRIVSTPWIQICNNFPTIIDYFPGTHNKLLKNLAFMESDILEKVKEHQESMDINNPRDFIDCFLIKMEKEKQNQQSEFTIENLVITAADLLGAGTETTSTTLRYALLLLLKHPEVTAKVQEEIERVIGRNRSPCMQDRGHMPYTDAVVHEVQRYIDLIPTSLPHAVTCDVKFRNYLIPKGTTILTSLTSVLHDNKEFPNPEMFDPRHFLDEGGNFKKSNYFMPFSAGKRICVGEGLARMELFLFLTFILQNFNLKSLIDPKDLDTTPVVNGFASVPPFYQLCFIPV
Sequence of CYP2C8 (P10632 whole entry): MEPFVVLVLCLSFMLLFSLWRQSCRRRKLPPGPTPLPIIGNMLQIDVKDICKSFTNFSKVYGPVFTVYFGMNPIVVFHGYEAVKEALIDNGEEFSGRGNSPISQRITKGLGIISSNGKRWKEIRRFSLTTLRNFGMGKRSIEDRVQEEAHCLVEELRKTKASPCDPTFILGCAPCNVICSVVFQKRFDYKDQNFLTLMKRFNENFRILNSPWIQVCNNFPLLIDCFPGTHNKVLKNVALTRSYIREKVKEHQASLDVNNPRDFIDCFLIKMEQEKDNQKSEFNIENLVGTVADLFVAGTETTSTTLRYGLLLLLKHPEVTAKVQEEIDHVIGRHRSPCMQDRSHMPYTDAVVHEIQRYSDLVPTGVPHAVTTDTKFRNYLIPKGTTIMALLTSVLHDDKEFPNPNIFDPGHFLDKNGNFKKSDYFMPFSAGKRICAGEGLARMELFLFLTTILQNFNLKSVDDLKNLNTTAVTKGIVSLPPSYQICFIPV

For `c1ccc2cc(NC3=NC[C@@]4(CN5CCC4CC5)O3)ncc2c1`, the IC50 (CYP2D6) was greater than 40 µM, the inhibition [1] was “inactive” and the fraction unbound at 4 h, 10 µM [2] was 0.35. For the same molecule, the %max [3] was 62%, the inhibition [4] was “inactive” and the remaining at 10 min, 3 µM [5] was 89%. It also gave a remaining at 10 min, 3 µM [6] of 74%, an IC50 (CYP2C8) greater than 40 µM and an IC50 (CYP2B6) greater than 40 µM. For the same molecule, the Ki [7] was 0.0013 µM, the IC50 (CYP2C9) was greater than 40 µM and the remaining at 10 min, 3 µM [8] was 1%. For the same molecule, the IC50 (CYP3A4 [9]) was greater than 40 µM, the Activity (Canis familiaris [10]) was “Toxic” and the fraction unbound at 4 h, 10 µM [11] was 0.44. For the same molecule, the IC50 (CYP2C19) was greater than 40 µM, the IC50 (CYP3A4 [12]) was greater than 40 µM and the Activity (Canis familiaris [13]) was “Toxic”. For the same molecule, the IC50 (CYP1A2) was greater than 40 µM, the fraction unbound at 4 h, 10 µM [14] was 0.27 and the Activity (Canis familiaris [15]) was “Toxic”. For the same molecule, the fraction unbound at 4 h, 10 µM [16] was 0.23, the remaining at 10 min, 3 µM [17] was 96% and the Activity (Canis familiaris [18]) was “Toxic”. The Activity (Canis familiaris [19]) was “Toxic”, the remaining at 10 min, 3 µM [20] was 78% and the fraction unbound at 4 h, 10 µM [21] was 0.25. The %max [22] was 26%, the Activity (Canis familiaris [23]) was “Toxic” and the EC50 [24] was 0.24 µM. For the same molecule, the inhibition [25] was “inactive” and the Activity (Canis familiaris [26]) was “Toxic”.
